In general, IC50 refers to the concentration at which inhibition is half-maximal.

Test [1] deals with BH4 levels in SK-N-BE (2) cells. Nature of the test: SKN-N-BE (2) cellular assay, BH4 levels by LC-MS. The format is cell-based. To be noted: Homo sapiens, SKNBE2, read-out: SK-N-BE(2) IC50, SK-N-BE (2) cells, BH4 levels by LC-MS.
The target in test [2] is SNAP-hSPR (sepiapterin reductase, SPR) (Homo sapiens, UniProt P35270). Nature of the test: biochemical. Type of test: binding. The following applies: terbium labelled SNAP-hSPR / SSZ labelled SNAP-EGFP; read-out: hTR-FRET IC50.
SNAP-hSPR (sepiapterin reductase, SPR), sequence (P35270 whole entry): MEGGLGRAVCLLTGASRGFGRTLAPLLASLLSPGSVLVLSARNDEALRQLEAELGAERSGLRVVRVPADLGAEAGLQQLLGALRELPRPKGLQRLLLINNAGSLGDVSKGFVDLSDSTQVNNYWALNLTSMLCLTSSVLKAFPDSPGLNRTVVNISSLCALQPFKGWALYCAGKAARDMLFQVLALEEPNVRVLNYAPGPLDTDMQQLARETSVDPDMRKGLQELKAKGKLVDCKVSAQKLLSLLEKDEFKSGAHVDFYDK

For the compound `Cc1nc(-n2ncc(C(=O)N3c4ccccc4C[C@H]3C)c2C)[nH]c(=O)c1C` (single isomer, unassigned) [Q-0416], the IC50 in test [1] amounted to 2800 nM; in test [2], 20 nM.
As to `Cc1c(C(=O)N2CCC[C@@H](C(F)(F)F)C2)cnn1-c1nc2c(c(=O)[nH]1)CCC2` (single isomer, unassigned) [Q-0474], the IC50 was found to be 600 nM in test [1] and 7 nM in test [2].
Regarding `Cc1c(C(=O)N2CCC[C@H](C(F)(F)F)C2)cnn1-c1nc2c(c(=O)[nH]1)CCC2` (single isomer, unassigned) [Q-0475], the IC50 in test [1] was found to be 300 nM; in test [2], 5 nM.
For `Cc1cc(=O)[nH]c(-n2ncc(C(=O)N3CCc4ccccc43)c2C)n1` [Q-0001] the same measures were 2700 nM and 20 nM.
Take `Cc1cc(=O)[nH]c(-n2nc(C)c(CCC(=O)Nc3ccc(Cl)cc3)c2C)n1` [Q-0009]: the figures for the IC50 in test [1] and in test [2] were 22000 nM and 300 nM, respectively.
The matching figures for `Cc1cc(=O)[nH]c(-n2ncc(C(=O)NC3CCCC3)c2C)n1` [Q-0280]: 16000 nM and 60 nM.
For `Cc1cc(=O)[nH]c(-n2nc(C)c(CCC(=O)N3CCCC3)c2C)n1` [Q-0281] the same measures were 9000 nM and 60 nM.
The matching figures for `CCN1CCN(C(=O)c2cnn(-c3nc(C)c(C)c(=O)[nH]3)c2C)CC1` [Q-0282]: 4400 nM and 30 nM.
For the compound `Cc1cc(=O)[nH]c(-n2ncc(C(=O)N3CCc4ccc(C(F)(F)F)cc4C3)c2C)n1` [Q-0298], the IC50 amounted to 1500 nM in test [1] and 20 nM in test [2].
The matching figures for `Cc1cc(=O)[nH]c(-n2ncc(C(=O)N3CCN(c4ccccn4)CC3)c2C)n1` [Q-0299]: 1200 nM and 5 nM.
In the case of `Cc1cc(=O)[nH]c(-n2ncc(C(=O)N3CCc4cccnc4C3)c2C)n1` [Q-0300], the IC50 in test [1] turned out to be 5000 nM; in test [2], 9 nM.
For `Cc1cc(=O)[nH]c(-n2ncc(C(=O)N3Cc4ccccc4C3)c2C)n1` [Q-0302] the same measures were 1200 nM and 9 nM.
For `Cc1cc(=O)[nH]c(-n2ncc(C(=O)N3c4ccccc4CC3C)c2C)n1` (stereo not drawn) [Q-0303] the same measures were 900 nM and 7 nM.
As to `Cc1cc(=O)[nH]c(-n2ncc(C(=O)N3CCS(=O)(=O)CC3)c2C)n1` [Q-0304], the values for the IC50 in test [1] and in test [2] were 67000 nM and 40 nM, respectively.
The matching figures for `Cc1cc(=O)[nH]c(-n2ncc(C(=O)NC34CC5CC(CC(C5)C3)C4)c2C)n1` [Q-0305]: 4600 nM and 30 nM.
In the case of `COc1ccc2c(c1)CN(C(=O)c1cnn(-c3nc(C)cc(=O)[nH]3)c1C)CC2` [Q-0307], the IC50 in test [1] turned out to be 4200 nM; in test [2], 9 nM.
Turning to `Cc1cc(=O)[nH]c(-n2ccc(C(=O)N3CCc4ccccc4C3)n2)n1` [Q-0308, 6-methyl-2-[3-(1,2,3,4-tetrahydroisoquinoline-2-carbonyl)-1H-pyrazol-1-yl]-3,4-dihydropyrimidin-4-one], the values for the IC50 in test [1] and in test [2] were 2000 nM and 20 nM, respectively.
The matching figures for `COC(=O)c1cnn(-c2nc(C)cc(=O)[nH]2)c1C` [Q-0310]: 12000 nM and 60 nM.
Consider `Cc1cc(=O)[nH]c(-n2ncc(CN3CCc4ccccc4C3)c2C)n1` [Q-0311], for which the figures for the IC50 in test [1] and in test [2] were 11000 nM and 40 nM, respectively.
For `Cc1cc(=O)[nH]c(-n2cc(C(=O)N3CCc4ccccc4C3)nn2)n1` [Q-0312, 6-methyl-2-[4-(1,2,3,4-tetrahydroisoquinoline-2-carbonyl)-1H-1,2,3-triazol-1-yl]-3,4-dihydropyrimidin-4-one] the same measures were 10000 nM and 20 nM.
For `Cc1cc(=O)[nH]c(-n2ncc(C(=O)N3CCc4ccccc4C3C)c2C)n1` (stereo not drawn) [Q-0313], the IC50 in test [1] is 1500 nM; in test [2], 6 nM.
The matching figures for `Cc1cc(=O)[nH]c(-n2cc(C(=O)N3CCc4ccccc4C3)cn2)n1` [Q-0314]: 5800 nM and 20 nM.
As to `Cc1cc(=O)[nH]c(-n2ncc(C(=O)N(C)C)c2C)n1` [Q-0317], the values for the IC50 in test [1] and in test [2] were 20000 nM and 60 nM, respectively.
As to `Cc1cc(=O)[nH]c(-n2ncc(C(=O)N(C)Cc3ccccc3)c2C)n1` [Q-0318], the IC50 was 2100 nM in test [1] and 6 nM in test [2].
As to `Cc1cc(=O)[nH]c(-n2ncc(C(=O)N3CCc4ccccc4C3)c2C(C)C)n1` [Q-0319], the IC50 in test [1] is 2200 nM; in test [2], 10 nM.
The matching figures for `Cc1c(C(=O)N2CCc3ccccc3C2)cnn1-c1nc2ccccc2c(=O)[nH]1` [Q-0323]: 35000 nM and 300 nM.
For `Cc1cc(=O)[nH]c(-n2ncc(C(=O)N3CCc4ccc(S(=O)(=O)N5CCOCC5)cc4C3)c2C)n1` [Q-0327] the same measures were 12000 nM and 7 nM.
For `Cc1cc(=O)[nH]c(-n2ncc(C(=O)N3CCc4cn[nH]c4C3)c2C)n1` [Q-0328], the figures for the IC50 in test [1] and in test [2] were 53000 nM and 10 nM, respectively.
The matching figures for `Cc1cc(=O)[nH]c(-n2ncc(C(=O)N3C4CCC3CC4)c2C)n1` [Q-0329]: 3500 nM and 10 nM.
As to `Cc1cc(=O)[nH]c(-n2ncc(C(=O)NC3CCCC3)c2C(C)C)n1` [Q-0330], the IC50 in test [1] turned out to be 6100 nM; in test [2] it was 20 nM.
For `Cc1cc(=O)[nH]c(-n2ncc(C(=O)NC3CCCC3)c2C(F)F)n1` [Q-0331] the same measures were 15000 nM and 80 nM.
As to `Cc1cc(=O)[nH]c(-n2ncc(C(=O)N3CCc4ccccc4C3)c2C(F)F)n1` [Q-0332], the IC50 in test [1] is 2500 nM; in test [2], 10 nM.
The matching figures for `Cc1cc(=O)[nH]c(-n2ccc(C(=O)NC3CCCC3)n2)n1` [Q-0333]: 12000 nM and 20 nM.
The matching figures for `Cc1cc(=O)[nH]c(-n2ncc(C(=O)NC3CCCC3)c2C(F)(F)F)n1` [Q-0334]: 49000 nM and 80 nM.
For `Cc1cc(=O)[nH]c(-n2ncc(C(=O)N3CCC(C)(C)C3)c2C)n1` [Q-0341] the same measures were 1800 nM and 5 nM.
Take `Cc1cc(=O)[nH]c(-n2ncc(C(=O)N3CCc4ccccc4C3)c2C(F)(F)F)n1` [Q-0342]: the IC50 in test [1] turned out to be 2400 nM; in test [2], 10 nM.
On to `Cc1cc(=O)[nH]c(-n2ccc(C(=O)N3CCOCC3)n2)n1` [Q-0343], for which the values for the IC50 in test [1] and in test [2] were 40000 nM and 100 nM, respectively.
With `Cc1cc(=O)[nH]c(-n2ncc(C(=O)NCc3cnccn3)c2C)n1` [Q-0344], the results for the IC50 in test [1] and in test [2] were 23000 nM and 70 nM, respectively.
For `Cc1cc(=O)[nH]c(-n2ncc(C(=O)N3CCc4[nH]ncc4C3)c2C)n1` [Q-0345] the same measures were 78000 nM and 10 nM.
For `CCCN(C)C(=O)c1cnn(-c2nc(C)cc(=O)[nH]2)c1C` [Q-0346] the same measures were 5300 nM and 8 nM.
For the compound `CCCN(CC)C(=O)c1cnn(-c2nc(C)cc(=O)[nH]2)c1C` [Q-0347], the IC50 in test [1] came out at 7500 nM; in test [2] it was 10 nM.
`CCN(CC)C(=O)c1cnn(-c2nc(C)cc(=O)[nH]2)c1C` [Q-0348]: the IC50 worked out at 6400 nM in test [1] and 10 nM in test [2].
The matching figures for `Cc1cc(=O)[nH]c(-n2ncc(C(=O)N3CCOCC3)c2C(F)F)n1` [Q-0349]: 57000 nM and 30 nM.
The matching figures for `CCN(C)C(=O)c1cnn(-c2nc(C)cc(=O)[nH]2)c1C` [Q-0350]: 11000 nM and 20 nM.
On to `CCCN(CCC)C(=O)c1cnn(-c2nc(C)cc(=O)[nH]2)c1C` [Q-0351], for which the IC50 was 4600 nM in test [1] and 10 nM in test [2].
As to `Cc1cc(=O)[nH]c(-n2ncc(C(=O)N3CCOCC3)c2C)n1` [Q-0352], the IC50 in test [1] stood at 13000 nM; in test [2], 20 nM.
With `Cc1cc(=O)[nH]c(-n2ncc(C(=O)N3CCc4ccccc4C3)c2CC(C)C)n1` [Q-0353], the IC50 in test [1] worked out at 15000 nM; in test [2], 50 nM.
Regarding `Cc1cc(=O)[nH]c(-n2ncc(C(=O)N3CCc4ccccc4C3)c2Cc2ccccc2)n1` [Q-0358], the IC50 in test [1] turned out to be 22000 nM; in test [2], 100 nM.
The matching figures for `Cc1cc(=O)[nH]c(-n2ncc(C(=O)N3CCC(C(F)(F)F)CC3)c2C)n1` [Q-0359]: 1100 nM and 3 nM.
For `Cc1cc(=O)[nH]c(-n2ncc(C(=O)NC3CCCc4ccccc43)c2C)n1` (stereo not drawn) [Q-0362] the same measures were 2900 nM and 20 nM.
The matching figures for `Cc1cc(=O)[nH]c(-n2ncc(C(=O)NC3CCc4ccccc43)c2C)n1` (stereo not drawn) [Q-0363]: 5800 nM and 30 nM.
For `Cc1cc(=O)[nH]c(-n2ncc(C(=O)NCC(F)(F)C(F)(F)F)c2C)n1` [Q-0364], the IC50 in test [1] was 16000 nM; in test [2], 70 nM.
For `Cc1cc(=O)[nH]c(-n2nc(C(=O)N3CCc4ccccc4C3)cc2C)n1` [Q-0365, 6-methyl-2-[5-methyl-3-(1,2,3,4-tetrahydroisoquinoline-2-carbonyl)-1H-pyrazol-1-yl]-3,4-dihydropyrimidin-4-one] the same measures were 12000 nM and 50 nM.
For `Cc1cc(=O)[nH]c(-n2cc(C)c(C(=O)N3CCc4ccccc4C3)n2)n1` [Q-0366] the same measures were 128000 nM and 400 nM.
The matching figures for `Cc1cc(=O)[nH]c(-n2ncc(C(=O)NCCC(F)(F)F)c2C)n1` [Q-0367]: 11000 nM and 70 nM.
`Cc1cc(=O)[nH]c(-n2ncc(C(=O)N3CCCC(C(F)(F)F)C3)c2C)n1` (stereo not drawn) [Q-0368]: the IC50 is 2900 nM in test [1] and 10 nM in test [2].
With `Cc1cc(=O)[nH]c(-n2ncc(C(=O)N3CCN(c4ccccn4)CC3)c2Cc2ccccc2)n1` [Q-0369], the figures for the IC50 in test [1] and in test [2] were 28000 nM and 200 nM, respectively.

The values are drawn from patent publication US9963462B2 (priority 2015, dated 2018).
